Measurements from US5463062A, “Substituted cyclohexane derivatives, processes for their preparation and the use of the compounds for treating diseases” (Hoechst Aktiengesellschaft, priority 1992, dated 1995).

Biological target: T1, glucose-6-phosphatase system (Rattus norvegicus, UniProt F7EWB7)
T1 construct: To prepare the microsomal fraction containing the glucose-6-phosphatase, fresh liver organs from male Wistar rats were used; from tissue; host or cells: liver of male Wistar rats, microsomal fraction
T1 sequence (F7EWB7 1-429): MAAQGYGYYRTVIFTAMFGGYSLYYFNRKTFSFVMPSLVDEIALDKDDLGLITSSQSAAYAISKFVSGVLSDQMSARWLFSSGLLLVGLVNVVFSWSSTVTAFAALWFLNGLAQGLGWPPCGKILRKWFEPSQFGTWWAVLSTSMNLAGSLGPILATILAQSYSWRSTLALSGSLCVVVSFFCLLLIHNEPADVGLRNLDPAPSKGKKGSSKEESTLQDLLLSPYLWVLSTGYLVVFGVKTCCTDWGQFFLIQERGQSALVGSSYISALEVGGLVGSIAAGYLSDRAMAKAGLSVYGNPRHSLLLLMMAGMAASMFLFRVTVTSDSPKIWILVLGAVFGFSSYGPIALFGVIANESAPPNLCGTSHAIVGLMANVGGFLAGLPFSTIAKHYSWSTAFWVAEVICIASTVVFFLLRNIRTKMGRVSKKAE
Assay: enzyme assay of glucose-6-phosphatase activity in liver microsomes (phosphate liberated from glucose-6-phosphate)
Assay type: biochemical, male Wistar rats
Settings: TABLE; rat liver microsomes, glucose-6-phosphate 1 mmol/l, pH 7.0, 20 min at room temperature
Experimental: The effect of the compounds according to the invention on the glucose-6-phosphatase system has been investigated in an enzyme assay in liver microsomes.
To prepare the microsomal fraction containing the glucose-6-phosphatase, fresh liver organs from male Wistar rats were used and processed as described in the literature [Canfield, W. K. and Arion, W. J., J. Biol. Chem. 263, 7458-7460, (1988)]. This microsomal fraction can be stored at -70° C. without significant loss of activity for at least 2 months. The glucose-6-phosphatase activity was detected as indicated in the literature [Arion, W. J. in Methods Enzymol. 174, Academic Press 1989, pages 58-67) by determining the phosphate liberated from glucose-6-phosphate. 0.1 ml of assay mixture contained glucose-6-phosphate(1 mmol/l), the test substance, 0.1 mg of microsomal fraction and 100 mmol/l HEPES buffer (4-(2-hydroxyethyl)piperazine-1-ethanesulfonic acid), pH 7.0. The reaction was started by adding the enzyme. After 20 min at room temperature, the reaction was stopped by adding 0.2 ml of phosphate reagent. The sample was incubated at 37° C. for 30 min, and the absorption (A) of the blue color was subsequently measured at 570 nm. The inhibitory activity of the test substance was found by comparison with a control reaction which contained no test substance, using the formula [formula]
Where necessary, the inhibitory effect of the test substance was determined as a function of the test substance concentration employed, and from this the concentration for 50% inhibition of enzyme activity (IC50) was calculated.
The IC50 was determined for the compounds listed hereinafter: […]

| IC50 | Compound |
| --- | --- |
| 170 µM | O=C(CC(C1CCCCC1)n1ccnc1)O[C@@H]1C[C@](OCCCc2ccc(Cl)cc2)(C(=O)O)C[C@@H](O)[C@H]1O (some centres unmarked) [Example 69] |
| 3.7 µM | O=C(CCC1CCCCC1)O[C@@H]1C[C@](OCC2CC2c2ccc(Cl)cc2)(C(=O)O)C[C@@H](O)[C@H]1O (some centres unmarked) [Example 113] |
| 5 µM | O=C(CCCCC1CCCCC1)O[C@@H]1C[C@](OCCCc2ccc(Cl)cc2)(C(=O)O)C[C@@H](O)[C@H]1O [Example 114] |
| 8.9 µM | O=C(O[C@@H]1C[C@](OCCCc2ccc(Cl)cc2)(C(=O)O)C[C@@H](O)[C@H]1O)C1CCCCC1 [Example 115] |
| 4.5 µM | O=C(O[C@@H]1C[C@](OCCCc2ccc(Cl)cc2)(C(=O)O)C[C@@H](O)[C@H]1O)c1snnc1-c1ccccc1 [Example 116] |
| 41 µM | CC(C)CCC(=O)O[C@@H]1C[C@](OCCCc2ccc(Cl)cc2)(C(=O)O)C[C@@H](O)[C@H]1O [Example 117] |
| 1.3 µM | C=Cc1ccc(C(=O)O[C@@H]2C[C@](OCCCc3ccc(Cl)cc3)(C(=O)O)C[C@@H](O)[C@H]2O)cc1 [Example 118] |
| 12 µM | O=C(COc1ccccc1)O[C@@H]1C[C@](OCCCc2ccc(Cl)cc2)(C(=O)O)C[C@@H](O)[C@H]1O [Example 119] |
| 0.69 µM | O=C(CCC1CCCCC1)O[C@@H]1C[C@](OCCCc2ccc(Cl)cc2)(C(=O)O)C[C@@H](O)[C@H]1O [Example 120] |

Same assay, conditions: in words

| Compound | inhibition of the glucose-6-phosphatase system |
| --- | --- |
| O=C(/C=C/c1ccc(O)cc1)O[C@@H]1C[C@](OCc2cccc3ccccc23)(C(=O)O)C[C@H](O)[C@H]1O [Example 14, [1S,3R,4R,5S]-1-(1-naphthylmethyl)oxy-3-[(E)-3-(4-hydroxyphenyl)-2-propenoyl]oxy-4,5-dihydroxycyclohexanecarboxylic acid] | inhibitors of the glucose-6phosphatase system |

Same assay, conditions: rat liver microsomes, glucose-6-phosphate 1 mmol/l, pH 7.0, 20 min at room temperature

| IC50 | Compound |
| --- | --- |
| 190 µM | O=C(/C=C/c1ccc(O)cc1)O[C@@H]1C[C@](OCc2ccccc2)(C(=O)O)C[C@H](O)[C@H]1O [Example 1, [1S,3R,4R,5S]-3-[(E)-3-(4-hydroxyphenyl)propenoyl]oxy-4,5-dihydroxy-1-phenylmethyloxy-cyclohexanecarboxylic acid] |
| 110 µM | O=C(/C=C/c1ccc(O)cc1)O[C@@H]1C[C@](OCc2cccs2)(C(=O)O)C[C@H](O)[C@H]1O [Example 2, [1S,3R,4R,5S]-3-[(E)-3-(4-hydroxyphenyl)-2-propenoyl]oxy-4,5-dihydroxy-1-(2-thienylmethyl)oxycyclohexanecarboxylic acid] |
| 560 µM | C#CCO[C@@]1(C(=O)O)C[C@H](O)[C@@H](O)[C@H](OC(=O)/C=C/c2ccc(O)cc2)C1 [Example 3, [1S,3R,4R,5S]-3-[(E)-3-(4-hydroxyphenyl)-2-propenoyl]oxy-4,5-dihydroxy-1-(2-propynyl)oxycyclohexanecarboxylic acid] |
| 26 µM | O=C(O[C@@H]1C[C@](OCCCc2ccc(Cl)cc2)(C(=O)O)C[C@H](O)[C@H]1O)c1ccccn1 [Example 4, [1S,3R,4R,5S]-1-(4-chlorophenylpropyl)oxy-4,5-dihydroxy-3-(2-pyridinecarbonyl)oxycyclohexanecarboxylic acid] |
| 9.3 µM | O=C(CCc1ccc(O)cc1)O[C@@H]1C[C@](OCCCc2ccc(Cl)cc2)(C(=O)O)C[C@@H](O)[C@H]1O [Example 44, [1S,3R,4R,5S]-1-(4-chlorophenylpropyl)oxy-3-[(E)-3-(4-hydroxyphenyl)propoyl]oxy-4,5-dihydroxycyclohexanecarboxylic acid] |

Same assay, conditions: rat liver microsomes, glucose-6-phosphate 1 mmol/l, pH 7.0, 20 min at room temperature; unit printed as "82 M"

| IC50 | Compound |
| --- | --- |
| 230 µM | CCCO[C@@]1(C(=O)O)C[C@H](O)[C@@H](O)[C@H](OC(=O)/C=C/c2ccc(O)cc2)C1 [Example 8, [1S,3R,4R,5S]-3-[(E)-3-(4-hydroxyphenyl)-2-propenoyl]oxy-4,5-dihydroxy-1-propyloxycyclohexanecarboxylic acid] |

Test system: glucose-6-phosphatase
Assay: not given
Settings: in words, literature; cited from earlier work

| Compound | inhibition of glucose-6-phosphatase |
| --- | --- |
| S=C=Nc1ccccc1C=Cc1ccccc1N=C=S [2,2'-diisothiocyanatostilbene] | non-specific inhibitors of glucose-6-phosphatase |
| CC(=O)Oc1ccccc1C=Cc1ccccc1N=C=S [2-isothiocyanato-2'-acetoxystilbene] | non-specific inhibitors of glucose-6-phosphatase |
| O=C(O)c1cc(SSc2ccc([N+](=O)[O-])c(C(=O)O)c2)ccc1[N+](=O)[O-] [5,5'-dithiobis-2-nitrobenzoic acid] | non-specific inhibitors of glucose-6-phosphatase |
| O=C(CCc1ccc(O)cc1)c1c(O)cc(O)cc1O[C@@H]1O[C@H](CO)[C@@H](O)[C@H](O)[C@H]1O [phlorrhizin] | non-specific inhibitors of glucose-6-phosphatase |
